Results: patent publication US8871934B2, “Fluorene compound and pharmaceutical use thereof” (Japan Tobacco Inc., priority 2008, dated 2014)
pIC50: −log10 of the molar value. Like-named read-outs stand apart in the source and are kept apart here.

Target: human PDHK2 (hPDHK2) (Homo sapiens (Human), UniProt Q15119)
Assay: Inhibitory action of PDHK activity in vitro (kinase reaction, residual PDH activity measured)
Format: biochemical
[1] = PDHK inhibitory activity, class symbol of IC50
[2] = read-out: PDHK inhibitory activity IC50
[3] = class symbol of IC50, read-out: PDHK inhibitory activity

Compound | pIC50 [1] | pIC50 [2] | pIC50 [3]
CC(=O)NCCOc1ccc2c(c1)C(O)(C(F)(F)F)c1ccccc1-2 (stereo not shown) [compound 325] | < 6.00 | 5.97 | 
CC(=O)N(C)CCOc1ccc2c(c1)C(O)(C(F)(F)F)c1ccccc1-2 (stereo not shown) [compound 326] | 6.00 to 7.00 | 6.52 | 
CN(CCCO)C(=O)c1ccc2c(c1)C(O)(C(F)(F)F)c1ccccc1-2 (stereo not shown) [compound 327] | < 6.00 | 5.53 | 
O=C(c1cc(Cl)c2c(c1)C(O)(C(F)(F)F)c1ccccc1-2)N1CC(OCCO)C1 (stereo not shown) [compound 328] | > 7.00 | 7.11 | 
CN(C)C(=O)C1CN(C(=O)c2cc(Cl)c3c(c2)C(O)(C(F)(F)F)c2ccccc2-3)C1 (stereo not shown) [compound 329] | > 7.00 | 7.18 | 
O=C(c1cc(Cl)c2c(c1)C(O)(C(F)(F)F)c1ccccc1-2)N1CC(CO)C1 (stereo not shown) [compound 330] | 6.00 to 7.00 | 6.90 | 
NCCCOc1ccc2c(c1)C(O)(C(F)(F)F)c1ccccc1-2 (stereo not shown) [compound 331] | < 6.00 | 5.85 | 
CNCCCOc1ccc2c(c1)C(O)(C(F)(F)F)c1ccccc1-2 (stereo not shown) [compound 332] | 6.00 to 7.00 | 6.04 | 
CN(C)CCCOc1ccc2c(c1)C(O)(C(F)(F)F)c1ccccc1-2 (stereo not shown) [compound 333] | 6.00 to 7.00 | 6.03 | 
CC(=O)N(C)CCCOc1ccc2c(c1)C(O)(C(F)(F)F)c1ccccc1-2 (stereo not shown) [compound 334] | 6.00 to 7.00 | 6.17 | 
OC1(C(F)(F)F)c2ccccc2-c2c(-c3cncnc3)cc(Cl)cc21 (stereo not shown) [compound 335] | > 7.00 | 7.10 | 
NCc1cccc2c1-c1ccccc1C2(O)C(F)(F)F (stereo not shown) [compound 336] | < 6.00 | < 5.00 | 
O=C(c1ccc2c(c1)C(O)(C(F)(F)F)c1ccccc1-2)N1CC(C(=O)N2CCC(O)C2)C1 (stereo not shown) [compound 337] | 6.00 to 7.00 | 6.30 | 
Cc1cc(C(=O)NCCCCO)cc2c1-c1ccccc1C2(O)C(F)(F)F (stereo not shown) [compound 338] |  | < 6.00 | < 6.00
O=C(c1cc(Cl)c2c(c1)C(O)(C(F)(F)F)c1ccccc1-2)N1CC(O)C1 (stereo not shown) [compound 339] | 6.00 to 7.00 | 6.75 | 
CC(=O)NCCCOc1ccc2c(c1)C(O)(C(F)(F)F)c1ccccc1-2 (stereo not shown) [compound 340] | < 6.00 | 5.80 | 
CC(C)(C)OC(=O)c1ccc(-c2cc(-c3cccnc3)c3c(c2)C(O)(C(F)(F)F)c2ccccc2-3)cc1 (stereo not shown) [compound 341] | > 7.00 | 7.10 | 
O=C(O)c1ccc(-c2cc(-c3cccnc3)c3c(c2)C(O)(C(F)(F)F)c2ccccc2-3)cc1 (stereo not shown) [compound 342] | > 7.00 | 7.33 | 
COC(=O)c1cc(-c2cnn(C)c2)c2c(c1)C(O)(C(F)(F)F)c1ccccc1-2 (stereo not shown) [compound 343] | > 7.00 | 7.28 | 
Cn1cc(-c2cc(C(=O)O)cc3c2-c2ccccc2C3(O)C(F)(F)F)cn1 (stereo not shown) [compound 344] |  | < 6.00 | < 6.00
Cn1cc(-c2cc(C(=O)NCCCCO)cc3c2-c2ccccc2C3(O)C(F)(F)F)cn1 (stereo not shown) [compound 345] | 6.00 to 7.00 | 6.92 | 
CN(CCO)C(=O)c1cc(-c2cnn(C)c2)c2c(c1)C(O)(C(F)(F)F)c1ccccc1-2 (stereo not shown) [compound 346] | 6.00 to 7.00 | 6.70 | 
CCn1cc(-c2cccc3c2-c2ccccc2C3(O)C(F)(F)F)cn1 (stereo not shown) [compound 347] | > 7.00 | 7.06 | 

Compound | pIC50 [1] | pIC50 [2] | pIC50 [3]
CN(CCOc1ccc2c(c1)C(O)(C(F)(F)F)c1ccccc1-2)C(=O)CO (stereo not shown) [compound 348] | 6.00 to 7.00 | 6.20 | 
NC(=O)COC1CN(C(=O)c2cc(Cl)c3c(c2)C(O)(C(F)(F)F)c2ccccc2-3)C1 (stereo not shown) [compound 349] | 6.00 to 7.00 | 6.90 | 
Cc1cc(C(=O)N2CC(O)C2)cc2c1-c1ccccc1C2(O)C(F)(F)F (stereo not shown) [compound 350] | 6.00 to 7.00 | 6.82 | 
Cc1cc(C(=O)N2CC(CO)C2)cc2c1-c1ccccc1C2(O)C(F)(F)F (stereo not shown) [compound 351] | 6.00 to 7.00 | 6.77 | 
Cc1cc(C(=O)N2CC(OCC(N)=O)C2)cc2c1-c1ccccc1C2(O)C(F)(F)F (stereo not shown) [compound 352] | 6.00 to 7.00 | 6.96 | 
COC(=O)Cc1ccc2c(c1)C(O)(C(F)(F)F)c1ccccc1-2 (stereo not shown) [compound 353] | < 6.00 | 5.13 | 
CN(C)C(=O)c1cc(-c2cnn(C)c2)c2c(c1)C(O)(C(F)(F)F)c1ccccc1-2 (stereo not shown) [compound 354] | > 7.00 | 7.15 | 
Cn1cc(-c2cc(C(=O)N3CCC3)cc3c2-c2ccccc2C3(O)C(F)(F)F)cn1 (stereo not shown) [compound 355] | > 7.00 | 7.40 | 
Cn1cc(-c2cc(C(=O)N3CCCC3)cc3c2-c2ccccc2C3(O)C(F)(F)F)cn1 (stereo not shown) [compound 356] | > 7.00 | 7.28 | 
COC(=O)COc1ccc2c(c1)C(O)(C(F)(F)F)c1ccccc1-2 (stereo not shown) [compound 357] | < 6.00 | 5.71 | 
Cn1cc(-c2cc(OCC(=O)O)cc3c2-c2ccccc2C3(O)C(F)(F)F)cn1 (stereo not shown) [compound 358] | > 7.00 | 7.47 | 
O=C1CCCN1CCOc1ccc2c(c1)C(O)(C(F)(F)F)c1ccccc1-2 (stereo not shown) [compound 359] | 6.00 to 7.00 | 6.73 | 
O=C(COc1ccc2c(c1)C(O)(C(F)(F)F)c1ccccc1-2)N1CCCC1 (stereo not shown) [compound 360] | 6.00 to 7.00 | 6.26 | 
O=C(COc1ccc2c(c1)C(O)(C(F)(F)F)c1ccccc1-2)N1CCCCC1 (stereo not shown) [compound 361] | 6.00 to 7.00 | 6.36 | 
O=C(COc1ccc2c(c1)C(O)(C(F)(F)F)c1ccccc1-2)N1CCOCC1 (stereo not shown) [compound 362] | < 6.00 | 5.97 | 
NC(=O)COc1cc(-c2cncnc2)c2c(c1)C(O)(C(F)(F)F)c1ccccc1-2 (stereo not shown) [compound 363] | > 7.00 | 7.33 | 
COC(=O)c1cc(-c2cncnc2)c2c(c1)C(O)(C(F)(F)F)c1ccccc1-2 (stereo not shown) [compound 364] | 6.00 to 7.00 | 6.75 | 
O=C(COc1ccc2c(c1)C(O)(C(F)(F)F)c1ccccc1-2)NCCO (stereo not shown) [compound 365] | < 6.00 | 5.88 | 
CN(CCO)C(=O)COc1ccc2c(c1)C(O)(C(F)(F)F)c1ccccc1-2 (stereo not shown) [compound 366] | < 6.00 | 5.66 | 
O=C(O)c1cc(-c2cncnc2)c2c(c1)C(O)(C(F)(F)F)c1ccccc1-2 (stereo not shown) [compound 367] |  | < 6.00 | < 6.00
CN(C)C(=O)c1cc(-c2cncnc2)c2c(c1)C(O)(C(F)(F)F)c1ccccc1-2 (stereo not shown) [compound 368] | 6.00 to 7.00 | 6.74 | 
O=C(c1cc(-c2cncnc2)c2c(c1)C(O)(C(F)(F)F)c1ccccc1-2)N1CCC1 (stereo not shown) [compound 369] | > 7.00 | 7.09 | 
O=C(c1cc(-c2cncnc2)c2c(c1)C(O)(C(F)(F)F)c1ccccc1-2)N1CCCC1 (stereo not shown) [compound 370] | 6.00 to 7.00 | 6.94 | 

Compound | pIC50 [1] | pIC50 [2] | pIC50 [3]
O=C(NCCCCO)c1cc(-c2cncnc2)c2c(c1)C(O)(C(F)(F)F)c1ccccc1-2 (stereo not shown) [compound 371] | 6.00 to 7.00 | 6.21 | 
CN(CCO)C(=O)c1cc(-c2cncnc2)c2c(c1)C(O)(C(F)(F)F)c1ccccc1-2 (stereo not shown) [compound 372] | 6.00 to 7.00 | 6.25 | 
Cn1cc(-c2cc(C(=O)N3CC(O)C3)cc3c2-c2ccccc2C3(O)C(F)(F)F)cn1 (stereo not shown) [compound 373] | > 7.00 | 7.31 | 
Cn1cc(-c2cc(C(=O)N3CC(CO)C3)cc3c2-c2ccccc2C3(O)C(F)(F)F)cn1 (stereo not shown) [compound 374] | > 7.00 | 7.31 | 
Cn1cc(-c2cc(C(=O)N3CC(OCCO)C3)cc3c2-c2ccccc2C3(O)C(F)(F)F)cn1 (stereo not shown) [compound 375] | > 7.00 | 7.30 | 
Cn1cc(-c2cc(C(=O)N3CCC(O)C3)cc3c2-c2ccccc2C3(O)C(F)(F)F)cn1 (stereo not shown) [compound 376] | > 7.00 | 7.07 | 
Cn1cc(-c2ccc3c(c2)C(O)(C(F)(F)F)c2ccccc2-3)cn1 (stereo not shown) [compound 377] | 6.00 to 7.00 | 6.72 | 
COc1cnc2c(c1)C(O)(C(F)(F)F)c1ccccc1-2 (stereo not shown) [compound 378] | 6.00 to 7.00 | 6.15 | 
CC(=O)N(CCO)CCOc1ccc2c(c1)C(O)(C(F)(F)F)c1ccccc1-2 (stereo not shown) [compound 379] | 6.00 to 7.00 | 6.45 | 
CC(=O)N(C)CC(C)Oc1ccc2c(c1)C(O)(C(F)(F)F)c1ccccc1-2 (stereo not shown) [compound 380] | < 6.00 | 5.83 | 
CC(=O)N(C)C(C)COc1ccc2c(c1)C(O)(C(F)(F)F)c1ccccc1-2 (stereo not shown) [compound 381] | 6.00 to 7.00 | 6.31 | 
O=C(COc1ccc2c(c1)C(O)(C(F)(F)F)c1ccccc1-2)N1CCC[C@@H]1CO (stereo partly shown) [compound 382] | 6.00 to 7.00 | 6.06 | 
O=C(COc1ccc2c(c1)C(O)(C(F)(F)F)c1ccccc1-2)N1CCC[C@H]1CO (stereo partly shown) [compound 383] | < 6.00 | 5.91 | 
O=C(O)CCCCOc1cc(Cl)c2c(c1)C(O)(C(F)(F)F)c1ccccc1-2 (stereo not shown) [compound 384] | 6.00 to 7.00 | 6.66 | 
NC(=O)COc1cc(Cl)c2c(c1)C(O)(C(F)(F)F)c1ccccc1-2 (stereo not shown) [compound 385] | 6.00 to 7.00 | 6.63 | 
CC(C)Cn1cc(-c2cccc3c2-c2ccccc2C3(O)C(F)(F)F)cn1 (stereo not shown) [compound 386] | > 7.00 | 7.05 | 
OCCCCCOc1cc(Cl)c2c(c1)C(O)(C(F)(F)F)c1ccccc1-2 (stereo not shown) [compound 387] | > 7.00 | 7.20 | 
CC(=O)N(C)CCOc1cc(Cl)c2c(c1)C(O)(C(F)(F)F)c1ccccc1-2 (stereo not shown) [compound 388] | > 7.00 | 7.20 | 
O[C@H]1CCN(CCOc2ccc3c(c2)C(O)(C(F)(F)F)c2ccccc2-3)C1 (stereo partly shown) [compound 389] | 6.00 to 7.00 | 6.09 | 
O[C@@H]1CCN(CCOc2ccc3c(c2)C(O)(C(F)(F)F)c2ccccc2-3)C1 (stereo partly shown) [compound 390] | 6.00 to 7.00 | 6.02 | 
O=C(COc1ccc2c(c1)C(O)(C(F)(F)F)c1ccccc1-2)N1CCC1 (stereo not shown) [compound 391] | 6.00 to 7.00 | 6.31 | 
Cn1cc(-c2cc(C(=O)N3CCC[C@@H]3CO)cc3c2-c2ccccc2C3(O)C(F)(F)F)cn1 (stereo partly shown) [compound 392] | 6.00 to 7.00 | 6.70 | 
